Experiments:
endopeptidase 24-16 = endopeptidase 24-16 (Homo sapiens, UniProt Q9BYT8); test: Inhibition of neurotensin degradation by purified endopeptidase 24-16 (HPLC), inhibition constant Ki; assay type: biochemical; conditions: neurotensin 20 μmole/l, 1 hour at 30° C., tris-HCl pH 7.5
Protocol: This example studies the inhibiting effect of the peptides of the invention with respect to endopeptidase 24-16.
To this end, incubation takes place for 1 hour at 30° C. of 2 nmole (20 μmole/l) of neurotensin, which is a known endopeptidase 24-16 substrate with 8 μg of endopeptidase 24-16 purified in a final volume of 100 μl of tris-HCl buffer, 50 mM, pH 7.5, in the absence of peptide (control) or in the presence of the peptide tested at concentrations from 10^-11 to 10^-7 mole/l. After 1 hour of incubation analysis takes place of the solutions by HPLC and the inhibition constant Ki of the tested peptide is determined.

endopeptidase 24-15 = endopeptidase 24-15 (Rattus norvegicus, UniProt P24155); test: Inhibition of neurotensin degradation by purified endopeptidase 24-15 (HPLC), inhibition constant Ki; conditions: for SELECTIVITY (ratio Ki24-16 /Ki24-15): selectivity relative to endopeptidase 24-16
Chain of endopeptidase 24-15 (P24155 whole entry): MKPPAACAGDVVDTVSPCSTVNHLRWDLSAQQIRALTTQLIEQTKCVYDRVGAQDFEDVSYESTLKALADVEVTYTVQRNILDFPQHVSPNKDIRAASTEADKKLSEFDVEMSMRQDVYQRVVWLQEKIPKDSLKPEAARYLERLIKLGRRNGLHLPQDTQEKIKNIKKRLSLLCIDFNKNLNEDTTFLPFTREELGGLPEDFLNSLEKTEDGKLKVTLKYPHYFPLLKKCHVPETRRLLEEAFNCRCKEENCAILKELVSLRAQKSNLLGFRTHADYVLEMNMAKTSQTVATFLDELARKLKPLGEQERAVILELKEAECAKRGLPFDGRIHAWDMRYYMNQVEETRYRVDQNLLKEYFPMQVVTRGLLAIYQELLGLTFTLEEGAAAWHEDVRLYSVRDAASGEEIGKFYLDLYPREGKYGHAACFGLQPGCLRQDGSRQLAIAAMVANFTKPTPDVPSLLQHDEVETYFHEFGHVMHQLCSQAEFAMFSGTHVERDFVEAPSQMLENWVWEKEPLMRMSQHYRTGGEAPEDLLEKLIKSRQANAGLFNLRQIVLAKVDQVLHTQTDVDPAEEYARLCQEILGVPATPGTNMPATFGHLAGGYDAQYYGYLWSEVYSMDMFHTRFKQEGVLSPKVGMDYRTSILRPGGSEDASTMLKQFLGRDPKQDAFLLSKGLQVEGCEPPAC
Protocol: Incubation takes place for 1 hour at 37° C. of 2 nmole (20 μmole/l) of neurotensin, which is a known endopeptidase 24-15 substrate, with 7 μg of purified endopeptidase 24-15 in a final volume of 100 μl of tris-HCl buffer, 50 nM, pH 7.5, in the absence of an inhibitor (control) or in the presence of the peptide tested at concentrations from 10^-11 to 10^-7 mole/l. After 1 hour incubation analysis takes place of the solutions by HPLC. On the basis of this analysis the inhibition constant Ki of the tested peptide is determined.

Chain of endopeptidase 24-16 (Q9BYT8 38-704): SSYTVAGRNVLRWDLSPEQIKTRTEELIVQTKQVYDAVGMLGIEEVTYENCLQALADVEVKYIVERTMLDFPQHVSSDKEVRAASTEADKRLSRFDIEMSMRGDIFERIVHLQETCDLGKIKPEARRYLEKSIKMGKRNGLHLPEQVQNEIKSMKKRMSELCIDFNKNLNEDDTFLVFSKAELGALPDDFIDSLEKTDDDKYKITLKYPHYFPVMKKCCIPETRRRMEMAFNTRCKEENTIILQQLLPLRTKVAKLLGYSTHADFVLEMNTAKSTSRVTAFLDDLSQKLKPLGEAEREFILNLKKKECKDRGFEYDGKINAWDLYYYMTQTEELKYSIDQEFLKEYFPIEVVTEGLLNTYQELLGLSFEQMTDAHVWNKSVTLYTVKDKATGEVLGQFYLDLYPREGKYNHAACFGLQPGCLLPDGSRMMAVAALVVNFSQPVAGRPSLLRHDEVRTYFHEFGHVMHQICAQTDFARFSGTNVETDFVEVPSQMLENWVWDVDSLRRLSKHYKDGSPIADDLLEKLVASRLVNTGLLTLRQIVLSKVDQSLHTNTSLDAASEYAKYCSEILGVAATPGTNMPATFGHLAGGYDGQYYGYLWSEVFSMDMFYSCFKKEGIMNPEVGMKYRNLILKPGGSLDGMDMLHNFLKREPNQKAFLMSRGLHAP

Row | SMILES | Ki (endopeptidase 24-16) [µM] | Ki (endopeptidase 24-15) [µM] | SELECTIVITY (ratio Ki24-16 /Ki24-15) (endopeptidase 24-15)
1 | CSCC[C@H](NC(=O)[C@H](CCCNC(=N)N)NC(=O)CCP(=O)(O)C(Cc1ccccc1)NC(=O)OCc1ccccc1)C(=O)O (mixture of isomers) [compound 1, Z--Phe .PSI. (PO2 CH2)Gly--Arg--Met] | 0.132 | 0.00035 | 377
2 | CCCC[C@H](NC(=O)[C@H](CCCNC(=N)N)NC(=O)CCP(=O)(O)C(Cc1ccccc1)NC(=O)OCc1ccccc1)C(=O)O (mixture of isomers) [compound 2, Z--Phe .PSI. (PO2 CH2)Gly--Arg--Nle] | 0.213 | 0.0016 | 135
3 | C[C@H](NC(=O)[C@H](CCCNC(=N)N)NC(=O)CCP(=O)(O)C(Cc1ccccc1)NC(=O)OCc1ccccc1)C(=O)O (mixture of isomers) [compound 3, Z--Phe .PSI. (PO2 CH2)Gly--Arg--Ala] | 0.201 | 0.0022 | 91
4 | N=C(N)NCCC[C@H](NC(=O)CCP(=O)(O)C(Cc1ccccc1)NC(=O)OCc1ccccc1)C(=O)N[C@@H](Cc1ccccc1)C(=O)O (mixture of isomers) [compound 4, Z--Phe .PSI. (PO2 CH2)Gly--Arg--Phe] | 1.1 | 0.0027 | 409
5 | N=C(N)NCCC[C@H](NC(=O)CCP(=O)(O)C(Cc1ccccc1)NC(=O)OCc1ccccc1)C(=O)N[C@@H](Cc1ccc(O)cc1)C(=O)O (mixture of isomers) [compound 5, Z--Phe .PSI. (PO2 CH2)Gly--Arg--Tyr] | 0.596 | 0.0036 | 165
6 | CC(C)C[C@H](NC(=O)[C@H](CCCNC(=N)N)NC(=O)CCP(=O)(O)C(Cc1ccccc1)NC(=O)OCc1ccccc1)C(=O)O (mixture of isomers) [compound 6, Z--Phe .PSI. (PO2 CH2)Gly--Arg--Leu] | 0.846 | 0.005 | 169
7 | N=C(N)NCCC[C@H](NC(=O)CCP(=O)(O)C(Cc1ccccc1)NC(=O)OCc1ccccc1)C(=O)N[C@@H](CCC(N)=O)C(=O)O (mixture of isomers) [compound 7, Z--Phe .PSI. (PO2 CH2)Gly--Arg--Gln] | 0.69 | 0.0061 | 113
8 | CC(C)[C@H](NC(=O)[C@H](CCCNC(=N)N)NC(=O)CCP(=O)(O)C(Cc1ccccc1)NC(=O)OCc1ccccc1)C(=O)O (mixture of isomers) [compound 8, Z--Phe .PSI. (PO2 CH2)Gly--Arg--Val] | 1.13 | 0.0093 | 121
9 | CC[C@H](C)[C@H](NC(=O)[C@H](CCCNC(=N)N)NC(=O)CCP(=O)(O)C(Cc1ccccc1)NC(=O)OCc1ccccc1)C(=O)O (mixture of isomers) [compound 9, Z--Phe .PSI. (PO2 CH2)Gly--Arg--Ile] | 0.589 | 0.0096 | 61
10 | N=C(N)NCCC[C@H](NC(=O)CCP(=O)(O)C(Cc1ccccc1)NC(=O)OCc1ccccc1)C(=O)N[C@@H](Cc1c[nH]c2ccccc12)C(=O)O (mixture of isomers) [compound 10, Z--Phe .PSI. (PO2 CH2)Gly--Arg--Trp] | 2.66 | 0.0131 | 203
11 | N=C(N)NCCC[C@H](NC(=O)CCP(=O)(O)C(Cc1ccccc1)NC(=O)OCc1ccccc1)C(=O)NCC(=O)O (mixture of isomers) [compound 11, Z--Phe .PSI. (PO2 CH2)Gly--Arg--Gly] | 1.66 | 0.0138 | 120
12 | N=C(N)NCCC[C@H](NC(=O)[C@H](CCCNC(=N)N)NC(=O)CCP(=O)(O)C(Cc1ccccc1)NC(=O)OCc1ccccc1)C(=O)O (mixture of isomers) [compound 12, Z--Phe .PSI. (PO2 CH2)Gly--Arg--Arg] | 2.04 | 0.014 | 145
13 | N=C(N)NCCC[C@H](NC(=O)CCP(=O)(O)C(Cc1ccccc1)NC(=O)OCc1ccccc1)C(=O)N[C@@H](CC(N)=O)C(=O)O (mixture of isomers) [compound 13, Z--Phe .PSI. (PO2 CH2)Gly--Arg--Asn] | 1.38 | 0.0195 | 71
14 | N=C(N)NCCC[C@H](NC(=O)CCP(=O)(O)C(Cc1ccccc1)NC(=O)OCc1ccccc1)C(=O)N[C@@H](Cc1c[nH]cn1)C(=O)O (mixture of isomers) [compound 14, Z--Phe .PSI. (PO2 CH2)Gly--Arg--His] | 3.01 | 0.0232 | 129
15 | C[C@@H](O)[C@H](NC(=O)[C@H](CCCNC(=N)N)NC(=O)CCP(=O)(O)C(Cc1ccccc1)NC(=O)OCc1ccccc1)C(=O)O (mixture of isomers) [compound 17, Z--Phe .PSI. (PO2 CH2)Gly--Arg--Thr] | 3.64 | 0.0352 | 103
16 | N=C(N)NCCC[C@H](NC(=O)CCP(=O)(O)C(Cc1ccccc1)NC(=O)OCc1ccccc1)C(=O)N[C@@H](CCCCN)C(=O)O (mixture of isomers) [compound 18, Z--Phe .PSI. (PO2 CH2)Gly--Arg--Lys] | 25.7 | 0.138 | 186
17 | N=C(N)NCCC[C@H](NC(=O)CCP(=O)(O)C(Cc1ccccc1)NC(=O)OCc1ccccc1)C(=O)N[C@@H](CCC(=O)O)C(=O)O (mixture of isomers) [compound 19, Z--Phe .PSI. (PO2 CH2)Gly--Arg--Glu] | 8.15 | 0.163 | 50

Row | SMILES | Ki (endopeptidase 24-16) [µM] | Ki (endopeptidase 24-15) [µM] | SELECTIVITY (ratio Ki24-16 /Ki24-15) (endopeptidase 24-15)
18 | N=C(N)NCCC[C@H](NC(=O)CCP(=O)(O)C(Cc1ccccc1)NC(=O)OCc1ccccc1)C(=O)N[C@@H](CC(=O)O)C(=O)O (mixture of isomers) [compound 20, Z--Phe .PSI. (PO2 CH2)Gly--Arg--Asp] | 20.4 | 0.352 | 58
19 | N=C(N)NCCC[C@H](NC(=O)CCP(=O)(O)C(Cc1ccccc1)NC(=O)OCc1ccccc1)C(=O)N1CCC[C@H]1C(=O)O (mixture of isomers) [compound 21, Z--Phe .PSI. (PO2 CH2)Gly--Arg--Pro] | 36.7 | 3.52 | 10
20 | CSCC[C@H](NC(=O)[C@H](CCCCN)NC(=O)C(C)CP(=O)(O)C(Cc1ccccc1)NC(=O)OCc1ccccc1)C(=O)O (mixture of isomers) [compound 22, Z--Phe .PSI. (PO2 CH2)Ala--Lys--Met] | 0.225 | 0.000115 | 1957
21 | CC(CP(=O)(O)C(Cc1ccccc1)NC(=O)OCc1ccccc1)C(=O)N[C@@H](CCCCN)C(=O)N[C@@H](CCC(N)=O)C(=O)O (mixture of isomers) [compound 28, Z--Phe .PSI. (PO2 CH2)Ala--Lys--Gln] | – | 0.00218 | –
22 | CC(CP(=O)(O)C(Cc1ccccc1)NC(=O)OCc1ccccc1)C(=O)N[C@@H](CCCCN)C(=O)N[C@@H](Cc1ccc(O)cc1)C(=O)O (mixture of isomers) [compound 29, Z--Phe .PSI. (PO2 CH2)Ala--Lys--Tyr] | – | 0.0023 | –
23 | CC(CP(=O)(O)C(Cc1ccccc1)NC(=O)OCc1ccccc1)C(=O)N[C@@H](CCCCN)C(=O)N[C@H](C(=O)O)C(C)C (mixture of isomers) [compound 30, Z--Phe .PSI. (PO2 CH2)Ala--Lys--Val] | – | 0.0026 | –
24 | CC(CP(=O)(O)C(Cc1ccccc1)NC(=O)OCc1ccccc1)C(=O)N[C@@H](CCCCN)C(=O)N[C@@H](CCCNC(=N)N)C(=O)O (mixture of isomers) [compound 31, Z--Phe .PSI. (PO2 CH2)Ala--Lys--Arg] | – | 0.00317 | –
25 | CC(CP(=O)(O)C(Cc1ccccc1)NC(=O)OCc1ccccc1)C(=O)N[C@@H](CCCCN)C(=O)N[C@@H](CC(N)=O)C(=O)O (mixture of isomers) [compound 32, Z--Phe .PSI. (PO2 CH2)Ala--Lys--Asn] | – | 0.0049 | –
26 | CC(CP(=O)(O)C(Cc1ccccc1)NC(=O)OCc1ccccc1)C(=O)N[C@@H](CCCCN)C(=O)NCC(=O)O (mixture of isomers) [compound 33, Z--Phe .PSI. (PO2 CH2)Ala--Lys--Gly] | – | 0.0051 | –
27 | CC(CP(=O)(O)C(Cc1ccccc1)NC(=O)OCc1ccccc1)C(=O)N[C@@H](CCCCN)C(=O)N[C@@H](Cc1c[nH]c2ccccc12)C(=O)O (mixture of isomers) [compound 34, Z--Phe .PSI. (PO2 CH2)Ala--Lys--Trp] | – | 0.00578 | –
28 | CC(CP(=O)(O)C(Cc1ccccc1)NC(=O)OCc1ccccc1)C(=O)N[C@@H](CCCCN)C(=O)N[C@@H](Cc1c[nH]cn1)C(=O)O (mixture of isomers) [compound 35, Z--Phe .PSI. (PO2 CH2)Ala--Lys--His] | – | 0.00713 | –
29 | CC(CP(=O)(O)C(Cc1ccccc1)NC(=O)OCc1ccccc1)C(=O)N[C@@H](CCCCN)C(=O)N[C@H](C(=O)O)[C@@H](C)O (mixture of isomers) [compound 36, Z--Phe .PSI. (PO2 CH2)Ala--Lys--Thr] | – | 0.0101 | –
30 | CC(CP(=O)(O)C(Cc1ccccc1)NC(=O)OCc1ccccc1)C(=O)N[C@@H](CCCCN)C(=O)N[C@@H](CO)C(=O)O (mixture of isomers) [compound 37, Z--Phe .PSI. (PO2 CH2)Ala--Lys--Ser] | – | 0.0119 | –
31 | CC(CP(=O)(O)C(Cc1ccccc1)NC(=O)OCc1ccccc1)C(=O)N[C@@H](CCCCN)C(=O)N[C@@H](CCCCN)C(=O)O (mixture of isomers) [compound 38, Z--Phe .PSI. (PO2 CH2)ASla--Lys--Lys] | – | 0.0269 | –
32 | CC(CP(=O)(O)C(Cc1ccccc1)NC(=O)OCc1ccccc1)C(=O)N[C@@H](CCCCN)C(=O)N[C@@H](CCC(=O)O)C(=O)O (mixture of isomers) [compound 39, Z--Phe .PSI. (PO2 CH2)Ala--Lys--Glu] | – | 0.0535 | –
33 | CC(CP(=O)(O)C(Cc1ccccc1)NC(=O)OCc1ccccc1)C(=O)N[C@@H](CCCCN)C(=O)N[C@@H](CC(=O)O)C(=O)O (mixture of isomers) [compound 40, Z--Phe .PSI. (PO2 CH2)Ala--Lys--Asp] | – | 0.109 | –
34 | CC(CP(=O)(O)C(Cc1ccccc1)NC(=O)OCc1ccccc1)C(=O)N[C@@H](CCCCN)C(=O)N1CCC[C@H]1C(=O)O (mixture of isomers) [compound 41, Z--Phe .PSI. (PO2 CH2)Ala--Lys--Pro] | – | 1.03 | –
